# According to ChEMBL document CHEMBL1154257, “Prediction of telomerase inhibitory activity for acridinic derivatives based on chemical structure” (Eur J Med Chem, 2009):
# Biological target: Telomerase reverse transcriptase (Homo sapiens, UniProt O14746)
# Experiment: Inhibition of telomerase in human A2780 cells by TRAP assay
# Assay type: cell-based
# Sequence of Telomerase reverse transcriptase (O14746 whole entry): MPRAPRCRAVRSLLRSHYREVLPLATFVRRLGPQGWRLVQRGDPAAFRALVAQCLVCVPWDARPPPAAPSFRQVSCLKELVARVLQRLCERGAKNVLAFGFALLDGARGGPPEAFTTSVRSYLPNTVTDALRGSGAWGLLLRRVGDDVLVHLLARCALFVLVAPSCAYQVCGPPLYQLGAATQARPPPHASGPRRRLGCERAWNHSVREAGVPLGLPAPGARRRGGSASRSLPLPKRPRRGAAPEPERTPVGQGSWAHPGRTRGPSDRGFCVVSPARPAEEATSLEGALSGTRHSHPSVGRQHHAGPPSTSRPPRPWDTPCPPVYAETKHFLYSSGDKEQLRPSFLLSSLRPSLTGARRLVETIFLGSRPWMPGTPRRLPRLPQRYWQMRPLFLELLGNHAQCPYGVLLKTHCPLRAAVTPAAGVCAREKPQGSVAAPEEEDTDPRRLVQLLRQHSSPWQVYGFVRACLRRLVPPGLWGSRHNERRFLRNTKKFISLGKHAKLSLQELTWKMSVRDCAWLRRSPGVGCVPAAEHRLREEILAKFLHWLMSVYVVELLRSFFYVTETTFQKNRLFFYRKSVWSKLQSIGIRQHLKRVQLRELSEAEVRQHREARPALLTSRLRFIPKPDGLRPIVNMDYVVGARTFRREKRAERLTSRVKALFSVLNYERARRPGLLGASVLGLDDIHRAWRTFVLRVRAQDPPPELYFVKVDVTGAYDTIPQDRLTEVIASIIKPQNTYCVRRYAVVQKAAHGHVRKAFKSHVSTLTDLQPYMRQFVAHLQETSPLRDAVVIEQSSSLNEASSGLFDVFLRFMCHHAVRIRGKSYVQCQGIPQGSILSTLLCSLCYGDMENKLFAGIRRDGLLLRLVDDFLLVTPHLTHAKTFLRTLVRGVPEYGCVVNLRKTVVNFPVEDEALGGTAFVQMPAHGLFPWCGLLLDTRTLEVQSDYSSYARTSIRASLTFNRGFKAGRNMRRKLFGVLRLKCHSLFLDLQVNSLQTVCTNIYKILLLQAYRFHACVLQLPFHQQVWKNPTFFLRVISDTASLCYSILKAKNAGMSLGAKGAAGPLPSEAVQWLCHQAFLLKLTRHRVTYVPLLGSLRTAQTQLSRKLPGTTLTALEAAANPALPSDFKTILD
row,Compound,IC50
1,CC1CCN(CCC(=O)Nc2ccc3c(=O)c4ccc(NC(=O)CCN5CCC(C)CC5)cc4[nH]c3c2)CC1,1.7 µM
2,O=C(CCN1CCC(O)CC1)Nc1ccc2nc3ccc(NC(=O)CCN4CCC(O)CC4)cc3c(O)c2c1,2.3 µM
3,O=C(CCN1CCCC1)Nc1ccc2nc3ccc(NC(=O)CCN4CCCC4)cc3c(O)c2c1,5.8 µM
4,O=C(CCN1CCCC1)Nc1ccc2nc3ccc(NC(=O)CCN4CCCC4)cc3c(Nc3ccccc3O)c2c1,1.03 µM
5,O=C(CCN1CCC(O)CC1)Nc1ccc2c(O)c3ccc(NC(=O)CCN4CCC(O)CC4)cc3nc2c1,1.7 µM
6,Nc1cccc(Nc2c3cc(NC(=O)CCN4CCCC4)ccc3nc3ccc(NC(=O)CCN4CCCC4)cc23)c1,1.09 µM
7,O=C(CCN1CCCC1)Nc1ccc2c(Nc3ccccc3)c3cc(NC(=O)CCN4CCCC4)ccc3nc2c1,1.33 µM
8,O=C(CCN1CCCC1)Nc1ccc2nc3ccc(NC(=O)CCN4CCCC4)cc3c(Nc3ccccc3)c2c1,1.29 µM
9,CC1(C)CC2CN(CCC(=O)Nc3ccc4cc5ccc(NC(=O)CCN6CC7CC(C)(C)CC(C)(C7)C6)cc5nc4c3)CC(C)(C2)C1,> 50 µM
10,O=C(CCN1CCCCC1)Nc1ccc2nc3ccc(NC(=O)CCN4CCCCC4)cc3c(O)c2c1,1.9 µM
11,C[N+]1(CCC(=O)Nc2ccc3nc4ccc(NC(=O)CC[N+]5(C)CCNCC5)cc4c(O)c3c2)CCNCC1,1.9 µM
12,O=C(CC[N+]1([O-])CCCCC1)Nc1ccc2c(=O)c3ccc(NC(=O)CC[N+]4([O-])CCCCC4)cc3[nH]c2c1,49 µM
13,COc1cccc(Nc2c3cc(NC(=O)CCN4CCCC4)ccc3nc3ccc(NC(=O)CCN4CCCC4)cc23)c1,2.73 µM
14,CCC1CCCCN1CCC(=O)Nc1ccc2c(=O)c3ccc(NC(=O)CCN4CCCCC4CC)cc3[nH]c2c1 (stereo unspecified),2.3 µM
15,CCN(CC)CCC(=O)Nc1ccc2c(=O)c3ccc(NC(=O)CCN(CC)CC)cc3[nH]c2c1,2.7 µM
16,CC1CCCCN1CCC(=O)Nc1ccc2c(=O)c3ccc(NC(=O)CCN4CCCCC4C)cc3[nH]c2c1 (stereo unspecified),2.3 µM
17,O=C(CCN1CCCC1)Nc1ccc2c(=O)c3ccc(NC(=O)CCN4CCCC4)cc3[nH]c2c1,8.1 µM
18,CC1CCCCN1CCC(=O)Nc1ccc2nc3ccc(NC(=O)CCN4CCCCC4C)cc3c(O)c2c1 (stereo unspecified),1.5 µM

# Compounds with a lower IC50, results first:
row,IC50,Compound
1,0.7 µM,CCN(CC)CCC(=O)Nc1ccc2c(O)c3cc(NC(=O)CCN(CC)CC)ccc3nc2c1
2,0.6 µM,CN(C)c1cccc(Nc2c3cc(NC(=O)CCN4CCCC4)ccc3nc3ccc(NC(=O)CCN4CCCC4)cc23)c1
3,0.6 µM,CN(C)CCC(=O)Nc1ccc2nc3ccc(NC(=O)CCN(C)C)cc3c(O)c2c1
4,0.57 µM,CN(C)CCNc1c2cc(NC(=O)CCN3CCCC3)ccc2nc2ccc(NC(=O)CCN3CCCC3)cc12
5,0.5 µM,CN(C)c1ccc(Nc2c3cc(NC(=O)CCN4CCCC4)ccc3nc3ccc(NC(=O)CCN4CCCC4)cc23)cc1
6,0.46 µM,COc1ccc(Nc2c3cc(NC(=O)CCN4CCCC4)ccc3nc3ccc(NC(=O)CCN4CCCC4)cc23)cc1
7,0.4 µM,O=C(CCN1CCCCC1)Nc1ccc2c(O)c3cc(NC(=O)CCN4CCCCC4)ccc3nc2c1
8,0.318 µM,O=C(CCCCC(=O)N1CCCC1)Nc1ccc(Nc2c3ccc(NC(=O)CCN4CCCC4)cc3nc3cc(NC(=O)CCN4CCCC4)ccc23)cc1
9,0.27 µM,CN(C)CCNc1c2ccc(NC(=O)CCN3CCCC3)cc2nc2ccc(NC(=O)CCN3CCCC3)cc12
10,0.21 µM,O=C(CCN1CCCC1)Nc1ccc2c(NC3CCCCC3)c3cc(NC(=O)CCN4CCCC4)ccc3nc2c1
11,0.21 µM,Nc1cccc(Nc2c3ccc(NC(=O)CCN4CCCC4)cc3nc3ccc(NC(=O)CCN4CCCC4)cc23)c1
12,0.2 µM,O=C(CCN1CCC(O)CC1)Nc1ccc2c(O)c3cc(NC(=O)CCN4CCC(O)CC4)ccc3nc2c1
13,0.2 µM,O=C(CCN1CCCCC1CCO)Nc1ccc2c(=O)c3cc(NC(=O)CCN4CCCCC4CCO)ccc3[nH]c2c1 (stereo unspecified)
14,0.2 µM,CC1CCN(CCC(=O)Nc2ccc3c(O)c4cc(NC(=O)CCN5CCC(C)CC5)ccc4nc3c2)CC1
15,0.2 µM,Nc1ccc(Nc2c3cc(NC(=O)CCN4CCCC4)ccc3nc3ccc(NC(=O)CCN4CCCC4)cc23)cc1
16,0.17 µM,Nc1ccccc1Nc1c2cc(NC(=O)CCN3CCCC3)ccc2nc2ccc(NC(=O)CCN3CCCC3)cc12
17,0.17 µM,CN(C)c1ccc(Nc2c3ccc(NC(=O)CCN4CCCC4)cc3nc3ccc(NC(=O)CCN4CCCC4)cc23)cc1
18,0.11 µM,Nc1ccccc1Nc1c2ccc(NC(=O)CCN3CCCC3)cc2nc2ccc(NC(=O)CCN3CCCC3)cc12
19,0.1 µM,CN(C)c1ccc(Nc2c3ccc(NC(=O)CCN4CCCC4)cc3nc3cc(NC(=O)CCN4CCCC4)ccc23)cc1
20,0.098 µM,CCN(CC)CCNC(=O)CCCCC(=O)Nc1ccc(Nc2c3ccc(NC(=O)CCN4CCCC4)cc3nc3cc(NC(=O)CCN4CCCC4)ccc23)cc1
21,0.08 µM,CCN(CC)CCCCCCNC(=O)CCCCC(=O)Nc1ccc(Nc2c3ccc(NC(=O)CCN4CCCC4)cc3nc3cc(NC(=O)CCN4CCCC4)ccc23)cc1
22,0.08 µM,CN(C)CCCNc1c2ccc(NC(=O)CCN3CCCC3)cc2nc2ccc(NC(=O)CCN3CCCC3)cc12
23,0.074 µM,Nc1ccc(Nc2c3ccc(NC(=O)CCN4CCCC4)cc3nc3cc(NC(=O)CCN4CCCC4)ccc23)cc1
